Numbers after ± are expanded uncertainties.

A short description of data set [1]: Boiling temperature at pressure P. To be noted: Liquid, Ebulliometric method (Recirculating still).
The conditions of data set [2]: 293.15 K; 101.33 kPa; Liquid; Pycnometric method.
A short description of data set [3]: refractive index (Na D-line) (dimensionless). Particulars: 298.15 K; 101.33 kPa; Liquid; Standard Abbe refractometry.

For `CCCOCOC` [1-(methoxymethoxy)propane], the “Boiling temperature at pressure P” value in data set [1] (8.17 kPa) stood at 29.97 ± 0.11 °C; in data set [1] (12.41 kPa), 38.00 ± 0.11 °C; in data set [1] (18.11 kPa) it was 46.03 ± 0.1 °C; in data set [1] (26.67 kPa), 54.81 ± 0.1 °C; in data set [1] (36.4 kPa), 62.67 ± 0.1 °C; in data set [1] (44.6 kPa), 68.11 ± 0.1 °C. The “Boiling temperature at pressure P” value in data set [1] (53.33 kPa) came to 73.17 ± 0.1 °C; in data set [1] (59.35 kPa), 76.2 ± 0.1 °C; in data set [1] (69.65 kPa), 81.07 ± 0.1 °C; in data set [1] (79.9 kPa), 85.2 ± 0.1 °C; in data set [1] (87.9 kPa), 88.33 ± 0.1 °C; in data set [1] (94.9 kPa) it was 90.82 ± 0.1 °C. In addition, the figures for the “Boiling temperature at pressure P” value in data set [1] (101.33 kPa) and in data set [1] (112 kPa) were 92.97 ± 0.1 °C and 96.14 ± 0.1 °C, respectively. Moreover, in data set [2], the mass density is given as 841.4 ± 0.8 kg/m3. In data set [3], the refractive index turned out to be 1.3757 ± 0.0007.
For the compound `CO` [methanol], the “Boiling temperature at pressure P” value in data set [1] (101.33 kPa) is 64.71 ± 0.1 °C. The mass density in data set [2] is listed as 791.1 ± 0.7 kg/m3. The refractive index in data set [3] came to 1.3269 ± 0.0007.
With `CCCO` [propan-1-ol], in data set [1] (101.33 kPa), the “Boiling temperature at pressure P” value came out at 97.20 ± 0.1 °C. Further, the mass density in data set [2] worked out at 803.7 ± 0.7 kg/m3. Moreover, the refractive index in data set [3] was 1.3836 ± 0.0007.

The values above are taken from the NIST ThermoML archive (doi:10.1016/j.fluid.2015.07.017).
